# How the values were obtained:
# [1] = tested on: green peach aphid (Myzus persicae); assay: Myzus persicae test (run-off application); assay type: in vivo; conditions: 500 ppm, applied individually
# Source text: Myzus persicae Test (Run-Off Application)
# [2] = tested on: cotton aphid (Aphis gossypii); assay: Aphis gossypii test; assay type: in vivo; conditions: 500 ppm, applied individually
# Source text: The kill rates determined a.re entered into Colby's formula.
# [3] = tested on: green peach aphid (Myzus persicae); assay: Myzus persicae test (spray on infested cabbage leaves); assay type: in vivo; conditions: 100 g/ha, applied individually
# [4] = tested on: larvae of the mustard beetle (Phaedon cochleariae); assay: Phaedon cochleariae larvae test; conditions: for pest or weed control at 100 g/ha: Phaedon cochleariae, 120 h, read-out: Kill in % after 5d
# [5] = tested on: larvae of the armyworm (Spodoptera frugiperda); assay: Spodoptera frugiperda larvae test; assay type: in vivo; conditions: applied individually; for Kill in % after 2d: 100 g/ha
# Method: Spodoptera frugiperda Larvae Test
# Cabbage leaves (Brassica oleracea) are treated by being sprayed with wits the preparation of active compound of the desired concentration and are populated with larvae of the armyworm (Spodoptera frugiperda) while the leaves are still moist.
molecule,measurement,setting,value
"Cn1c(=O)c2sc3c(=O)n(C)c(=O)c3sc2c1=O [2,6-DIMETHYL-1H,5H-[1,4]DITHIINO[2,3-C:5,6-C′]DIPYRROLE-1,3,5,7(2H,6H)-TETRONE]",Kill in % after 1d,[1],0%
same,Kill in % after 1d,[2]; after 1 d,0%
same,Kill in % after 3 d,[2]; after 3 d,0%
CO/C=C(/C(=O)OC)c1ccccc1Oc1cc(Oc2ccccc2C#N)ncn1 [azoxystrobin],Kill in % after 1d,[3],0%
same,Kill in % after 5d,"[4]; 100 g/ha, applied individually",0%
O=C(Nc1ccccc1-c1ccc(Cl)cc1)c1cccnc1Cl [boscalid],pest or weed control at 100 g/ha,[4],0%
CCC1(C(=O)N[C@H](C)c2ccc(Cl)cc2)C(C)C1(Cl)Cl (some centres unmarked) [carpropamid],pest or weed control at 100 g/ha,[4],0%
CSC1=N[C@@](C)(c2ccccc2)C(=O)N1Nc1ccccc1 [fenamidone],pest or weed control at 100 g/ha,[4],0%
N#Cc1c[nH]cc1-c1cccc2c1OC(F)(F)O2 [fludioxonil],pest or weed control at 100 g/ha,[4],0%
O=C(NCc1ncc(C(F)(F)F)cc1Cl)c1c(Cl)cccc1Cl [fluopicolide],Kill in % after 5d,"[4]; 100 g/ha, applied individually",0%
O=C(NCCc1ncc(C(F)(F)F)cc1Cl)c1ccccc1C(F)(F)F [fluopyram],Kill in % after 2d,"[4]; 100 g/ha, applied individually, after 2 d",0%
same,Kill in % after 2d,[2]; after 2 d,0%
CO/N=C(/C1=NOCCO1)c1ccccc1Oc1ncnc(Oc2ccccc2Cl)c1F [fluoxastrobin],pest or weed control at 100 g/ha,[4],0%
O=c1c2cc(F)ccc2nc(-n2cncn2)n1-c1ccc(Cl)cc1Cl [fluquinconazole],pest or weed control at 100 g/ha,[4],0%
CC(C)Oc1cccc(NC(=O)c2ccccc2C(F)(F)F)c1 [flutolanil],Kill in % after 5d,[3],0%
same,pest or weed control at 100 g/ha,[4],0%
C=CCOC(Cn1ccnc1)c1ccc(Cl)cc1Cl (centres unmarked) [imazalil],Kill in % after 2d,[5],0%
same,pest or weed control at 100 g/ha,[4],0%
CC(C)C1CCC(Cc2ccc(Cl)cc2)C1(O)Cn1cncn1 (centres unmarked) [ipconazole],Kill in % after 1d,[3],0%
same,pest or weed control at 100 g/ha,[4],0%
N#Cc1ccccc1NC(=O)c1snc(Cl)c1Cl [isotianil],Kill in % after 5d,"[4]; 100 g/ha, applied individually",0%
COCC(=O)N(c1c(C)cccc1C)[C@H](C)C(=O)OC [mefenoxam],Kill in % after 1d,[3],0%
same,Kill in % after 5d,"[4]; 100 g/ha, applied individually",0%
COCC(=O)N(c1c(C)cccc1C)C(C)C(=O)OC (centres unmarked) [metalaxyl],pest or weed control at 100 g/ha,[4],0%
CNC(=O)/C(=N/OC)c1ccccc1Oc1ccccc1 [metominostrobin],Kill in % after 1d,[3],0%
O=C(Nc1ccccc1)N(Cc1ccc(Cl)cc1)C1CCCC1 [pencycuron],pest or weed control at 100 g/ha,[4],0%
Cc1nn(C)c(F)c1C(=O)Nc1ccccc1C(C)CC(C)C (centres unmarked) [penflufen],Kill in % after 2d,[5],0%
same,Kill in % after 5d,"[4]; 100 g/ha, applied individually",0%
OC(Cc1ccccc1Cl)(Cn1nc[nH]c1=S)C1(Cl)CC1 (centres unmarked) [prothioconazole],pest or weed control at 100 g/ha,[4],0%
Cn1cc(C(=O)Nc2ccccc2C2CC2C2CC2)c(C(F)F)n1 (centres unmarked) [sedaxane],Kill in % after 5d,"[4]; 100 g/ha, applied individually",0%
CC(C)(C)C(O)(CCc1ccc(Cl)cc1)Cn1cncn1 (centres unmarked) [tebuconazole],Kill in % after 5d,[3],0%
same,pest or weed control at 100 g/ha,[4],0%
CC(C)(C)C(O)C(Oc1ccc(Cl)cc1)n1cncn1 (centres unmarked) [triadimenol],pest or weed control at 100 g/ha,[4],0%
O=[n+]1[n-]c(-n2ccnc2)nc2ccc(Cl)cc21 [triazoxide],pest or weed control at 100 g/ha,[4],0%
CON=C(C(=O)OC)c1ccccc1CON=C(C)c1cccc(C(F)(F)F)c1 [trifloxystrobin],pest or weed control at 100 g/ha,[4],0%
fosetyl-aluminium,Kill in % after 6d,"[5]; 500 g/ha, after 6 d",0%
mancozeb,Kill in % after 1d,[3],0%
same,Kill in % after 5d,"[4]; 100 g/ha, applied individually",0%

# Reference: patent US9700049B2, “Anthranilamides in combination with fungicides” (BAYER INTELLECTUAL PROPERTY GMBH, priority 2010, dated 2017)
